Data set [1] in a line: Potentiometric titration of DPDP (ligand proton titration). The data set is classed as physicochemical. The conditions noted are these: pH of 3 and above. An excerpt: The compound DPDP was studied potentiometrically from pH 11.2 to 2.0. Data sets were collected on a custom-built automatic potentiometric titration apparatus composed of a METROHM 655 DOSIMAT automatic buret, a FISHER ACCUMET pH meter with a CORNING calomel combination electrode, a custom-blown water jacketed titration cell, a BRINKMAN LAUDA K-2/R constant temperature bath and a COMMODORE 64 computer. The BASIC computer program TITRATOR (Harris, W. et al, J.Am.Chem.Soc. 101:6534 (1979)) runs the apparatus. Data analysis was performed on an IBM-AT computer using the least squares program, BETA (Harris, W. et al, supra), and the data analysis program, HANDNBAR (Harris, W. et al, supra). The titrants were standardized by phenophthalein titration as follows: KOH was calibrated against potassium hydrogen phthalate (a primary standard), and HCl solutions were calibrated against the KOH standard. The Mn(II)Cl2 solution was standardized with an EDTA titration using Erichrome Black T as the indicator. All solutions were made from distilled, deionized water that was further purified on a MILLI-Q cartridge system, degassed, and then kept under an atmosphere of argon which had been scrubbed for CO2 and O2. Additions of EDTA and Mn(II) solutions were performed using calibrated GILMOT pipets. […]

The conditions of data set [2]: cited from earlier work.

Each structure is given as a SMILES string.

`Cc1ncc(COP(=O)(O)O)c(CN(CCN(CC(=O)O)Cc2c(COP(=O)(O)O)cnc(C)c2O)CC(=O)O)c1O` [DPDP, N,N'-bis(3-hydroxy-2-methyl-5-phosphonomethyl-4-pyridylmethyl)ethylenediamine-N,N'-diacetic acid]: the “ligand charge / deprotonation state” value in data set [1] was “anionic and possesses deprotonated metal binding sites”.

Regarding `O=C(O)CN(CCN(CC(=O)O)Cc1ccccc1O)Cc1ccccc1O` [HBED, N,N'-bis(2-hydroxybenzyl)ethylenediamine-N,N'-diacetic acid], in data set [2] (L'Eplathenier et al titrations), the “oxidation of manganese(II) during titration” value is “the manganese(II) ion was oxidized by the phenolic ligand”.

As to `O=C([O-])C(NCCNC(C(=O)[O-])c1ccccc1O)c1ccccc1O.[Mn+2]` (stereo not shown) [Mn(II) chelates of EHPG], the “stability of manganese(II) complex” value in data set [2] (above pH 5, Frost et al) is recorded as “irreversibly oxidized”.

For `O=C([O-])CN(CCN(CC(=O)[O-])Cc1ccccc1O)Cc1ccccc1O.[Mn+2]` [manganese chelate of N,N'-bis(2-hydroxybenzyl)ethylenediamine-N,N'-diacetic acid], in data set [2] (manganese chelate, reported by L'Eplathenier et al), the “log Kf (formation constant)” value was 14.8.

The values are drawn from patent US5091169A, “Dipyridoxyl phosphate NMRI contrast agent compositions” (priority 1989, dated 1992).
